One data set deals with MCF-7 (breast carcinoma). Kind of data set: in vitro antiproliferative activity, MTT assay, MCF-7. The class given is cell-based, human. The following applies: for IC50: Homo sapiens, MCF7, concentration that causes 50% growth inhibition, 72 h, MTT assay. The protocol: (§1) The experiments were carried out on several human cell lines, as follows: HCT116 (colon carcinoma), H 460 (lung carcinoma) and MCF-7 (breast carcinoma), HeLa (cervical carcinoma), human T-lymphocyte cells (CEM) and HMEC-1 (dermal microvascular endothelial cell) according to the previously published experimental procedure. Briefly, the cells were grown in DMEM medium with the addition of 10% foetal bovine serum (FBS), 2 mM L-glutamine, 100 U/mL penicillin and 100 µg/mL streptomycin, and cultured as monolayers at 37 °C in a humidified atmosphere with 5% CO2. HCT116, H 460 and MCF-7 cells were seeded at 2 × 10^3 cells/well in a standard 96-well microtiter plates and left to attach for 24 h. Next day, test compound was added in five serial 10-fold dilutions. The cell growth rate was evaluated after 72 h of incubation, using MTT assay. Obtained results were expressed as IC50 value which stands for the concentration of the compound necessary for 50% of growth inhibition. The IC50 values were calculated from concentration-response curve using linear regression analysis by fitting the test concentrations that give percentage of growth (PG) values above and below the reference value (i.e., 50%). However, if for a given cell line all of the tested concentrations produce PGs exceeding the respective reference level of effect (e.g., PG value of 50), then the highest tested concentration is assigned as the default value, which is preceded by a “>” sign. Each test was performed in quadruplicate in at least two individual experiments.

The subject of data set [1] is HeLa (cervical carcinoma). Kind of data set: cell proliferation, Coulter counter, HeLa. The class given is cell-based. Conditions: Homo sapiens, 72 h, 3 days, cells counted in a Coulter counter. How it is done: as §1
(§2) HeLa and HMEC-1 cells were seeded in 48-well plates at 10,000 cells/well. After 24 h, different concentrations of the compounds were added. After 3 days of incubation, the cells were trypsinized and counted in a Coulter counter. Suspension cells (human T-cell leukaemia Cem cells) were seeded in 96-well plates at 60,000 cells/well in the presence of different concentrations of compounds, allowed to proliferate for 96 h, and counted in a Coulter counter. The 50% inhibitory concentration (IC50) was defined as the compound concentration required reducing cell proliferation by 50%.

The test system of data set [2] is human T-lymphocyte cells (CEM). Briefly: cell proliferation, Coulter counter, CEM. The following applies: 96 h, cells counted in a Coulter counter. The class given is cell-based. The protocol:
as §1, §2

The next data set deals with H 460 (lung carcinoma). Briefly: in vitro antiproliferative activity, MTT assay, H 460. The class given is cell-based. The following applies: Homo sapiens, NCI-H460, concentration that causes 50% growth inhibition, 72 h. The protocol: as §1
In general terms: Formazan colour is commonly taken as a measure of viable cells.

Data set [3] has as its system HMEC-1 (dermal microvascular endothelial cell). Kind of data set: cell proliferation, Coulter counter, HMEC-1 (non-tumour). The class given is cell-based. Conditions: Homo sapiens, HMEC-1, 72 h; non-tumour cell line; 3 days, cells counted in a Coulter counter. How it is done: as §1, §2
The test system of another data set is HCT116 (colon carcinoma). Briefly: in vitro antiproliferative activity, MTT assay, HCT116. The class given is cell-based. Conditions: Homo sapiens, HCT-116, concentration that causes 50% growth inhibition, 72 h. How it is done:
as §1

13 compounds from paper PMC8840664, “Design, Synthesis, Spectroscopic Characterisation and In Vitro Cytostatic Evaluation of Novel Bis(coumarin-1,2,3-triazolyl)benzenes and Hybrid Coumarin-1,2,3-triazolyl-aryl Derivatives” (Molecules, 2022) can be followed below.

Each structure is given as a SMILES string.

The IC50 is the concentration that gives 50% inhibition. Low readings indicate greater potency in that assay, high ones weaker potency in that assay. What is called melting point is the temperature of the solid-liquid transition.

Consider `Cc1cc(=O)oc2cc(-n3cc(-c4ccccc4)nn3)ccc12` [Compound 2a, 4-Methyl-7-(4-phenyl-1H-1,2,3-triazol-1-yl)-2H-chromen-2-one], for which the melting point was 267 to 270 °C. In the data set on MCF-7 (breast carcinoma), this compound registered a half-maximal inhibitory concentration (IC50) of 23 ± 9 µM. The same compound showed an IC50 in data set [1] of over 100 µM. This compound had an IC50 in data set [2] of over 100 µM. For the same compound, in the data set with H 460 (lung carcinoma), the 50% inhibitory concentration (IC50) was at least 100 µM. Also, the IC50 in data set [3] was over 100 µM. In the data set with HCT116 (colon carcinoma), this compound gave an IC50 of at least 100 µM.

Compound `Cc1cc(=O)oc2cc(-n3cc(-c4ccc(N)cc4)nn3)ccc12` [Compound 2b, 7-[4-(4-Aminophenyl)-1H-1,2,3-triazol-1-yl]-4-methyl-2H-chromene-2-one] returned a melting point of 269 to 273 °C. In addition, in the data set on MCF-7 (breast carcinoma), half-maximal inhibition (IC50) required 0.6 ± 0.1 µM. The concentration for half-maximal inhibition (IC50) in data set [1] is over 100 µM. Besides, the half-inhibitory concentration (IC50) in data set [2] was over 100 µM. Also, the 50% inhibitory concentration (IC50) with H 460 (lung carcinoma) was at least 100 µM. This compound also showed a 50% inhibitory concentration (IC50) in data set [3] of over 100 µM. Moreover, the 50% inhibitory concentration (IC50) with HCT116 (colon carcinoma) is 3 ± 2 µM.

`Cc1cc(=O)oc2cc(-n3cc(-c4ccc(N(C)C)cc4)nn3)ccc12` [Compound 2c, 7-[4-(4-(Dimethylamino)phenyl]-1H-1,2,3-triazol-1-yl)-4-methyl-2H-chromen-2-one] returned a melting point of 275 to 279 °C. Moreover, the half-maximal inhibitory concentration (IC50) in the data set on MCF-7 (breast carcinoma) is 21 ± 0.03 µM. In data set [1], the midpoint of inhibition, the IC50, lay at 88 ± 8 µM. In data set [2], this compound came in with an IC50 of 58 ± 7 µM. In the data set with H 460 (lung carcinoma), this compound had a 50% inhibitory concentration (IC50) of at least 100 µM. Further, in data set [3], the IC50 was over 100 µM. In the data set on HCT116 (colon carcinoma), this compound came in with a half-maximal inhibitory concentration (IC50) of at least 100 µM.

As to `Cc1ccc(-c2cn(-c3ccc4c(C)cc(=O)oc4c3)nn2)cc1` [Compound 2d, 4-Methyl-7-[4-(p-tolyl)-1H-1,2,3-triazol-1-yl]-2H-chromen-2-one], the melting point fell in the range of 269 to 272 °C. In addition, in the data set with MCF-7 (breast carcinoma), the “activity against MCF-7 cell line (in words)” value (“activity” below) is recorded as “devoid of activity” and the concentration for half-maximal inhibition (IC50) was at least 100 µM. This compound also gave a 50% inhibitory concentration (IC50) with H 460 (lung carcinoma) of at least 100 µM. Also, in the data set with HCT116 (colon carcinoma), it took 36 ± 3 µM to reach half-maximal inhibition (IC50).

As to `Cc1cc(=O)oc2cc(-n3cc(-c4ccc(Br)cc4)nn3)ccc12` [Compound 2e, 7-[4-(4-Bromophenyl)-1H-1,2,3-triazol-1-yl]-4-methyl-2H-chromen-2-one], the melting point lay in the range of 280 to 285 °C. The compound further displayed an IC50 in the data set with MCF-7 (breast carcinoma) of 32 ± 4 µM. The compound further came in with a half-maximal inhibitory concentration (IC50) in the data set on H 460 (lung carcinoma) of 85 ± 13.5 µM. Also, in the data set with HCT116 (colon carcinoma), half-maximal inhibition (IC50) was put at 27 ± 0.06 µM.

With `COc1ccc(-c2cn(-c3ccc4c(C)cc(=O)oc4c3)nn2)cc1` [Compound 2f, 7-[4-(4-Methoxyphenyl)-1H-1,2,3-triazol-1-yl]-4-methyl-2H-chromen-2-one], the melting point was 266 to 270 °C. Besides, in the data set on MCF-7 (breast carcinoma), the “activity” value is “devoid of activity” and the 50% inhibitory concentration (IC50) is at least 100 µM. For the same compound, the half-maximal inhibitory concentration (IC50) in the data set on H 460 (lung carcinoma) was at least 100 µM. For the same compound, half-maximal inhibition with HCT116 (colon carcinoma) (IC50) required 22 ± 21 µM.

As for `Cc1cc(=O)oc2cc(-n3cc(-c4ccc(C=O)cc4)nn3)ccc12` [Compound 2g, 4-[1-(4-Methyl-2-oxo-2H-chromen-7-yl]-1H-1,2,3-triazol-4-yl)benzaldehyde], the melting point fell in the range of 282 to 287 °C. Further, in the data set with MCF-7 (breast carcinoma), the “activity” value is recorded as “devoid of activity” and the IC50 was at least 100 µM. Also, the IC50 with H 460 (lung carcinoma) is at least 100 µM. In the data set with HCT116 (colon carcinoma), this compound gave an IC50 of 77 ± 7 µM.

Take `Cc1cc(=O)oc2cc(-n3cc(-c4cccc(-c5cn(-c6ccc7c(C)cc(=O)oc7c6)nn5)c4)nn3)ccc12` [Compound 2h, 7,7′-(4,4′-(1,3-Phenylene)bis(1H-1,2,3-triazole-4,1-diyl))bis(4-methyl-2H-chromen-2-one)]: the half-maximal inhibitory concentration (IC50) in the data set with MCF-7 (breast carcinoma) is 0.3 ± 0.2 µM; in data set [1] it was over 100 µM; in data set [2] it was over 100 µM; in the data set with H 460 (lung carcinoma), 29 ± 3 µM; in data set [3], over 100 µM; in the data set with HCT116 (colon carcinoma), 9 ± 3 µM.

Take `Cc1cc(=O)oc2cc(-n3cc(-c4ccc(-c5cn(-c6ccc7c(C)cc(=O)oc7c6)nn5)cc4)nn3)ccc12` [Compound 2i, 7,7′-(4,4′-(1,4-Phenylene)bis(1H-1,2,3-triazole-4,1-diyl))bis(4-methyl-2H-chromen-2-one)]: the melting point is 255 to 261 °C. In addition, half-maximal inhibition with MCF-7 (breast carcinoma) (IC50) required 1 ± 0.1 µM. Moreover, the IC50 in data set [1] was at least 100 µM. This compound returned a concentration for half-maximal inhibition (IC50) in data set [2] of over 100 µM. Further, the IC50 in the data set with H 460 (lung carcinoma) was at least 100 µM. Besides, the half-inhibitory concentration (IC50) in data set [3] was over 100 µM. In addition, the half-maximal inhibitory concentration (IC50) in the data set on HCT116 (colon carcinoma) was determined as 7 ± 3 µM.

Compound `Cc1cc(=O)oc2cc(-n3cc(CSc4nc5ccccc5s4)nn3)ccc12` [Compound 4a, 7-{{4-[(Benzo[d]thiazol-2-yl)thio]methyl}-1H-1,2,3-triazol-1-yl}-4-methyl-2H-chromen-2-one] gave a melting point of 186 to 192 °C. Further, the 50% inhibitory concentration (IC50) in the data set with MCF-7 (breast carcinoma) was found to be 3 ± 2 µM. Moreover, in data set [1], the concentration for half-maximal inhibition (IC50) is 79 ± 36 µM. For the same compound, the IC50 in data set [2] was at least 100 µM. Moreover, the IC50 in the data set with H 460 (lung carcinoma) worked out at 21 ± 7 µM. In data set [3], this compound showed an IC50 of 66 ± 4 µM. In the data set on HCT116 (colon carcinoma), it took 31 ± 6 µM to reach half-maximal inhibition (IC50).

In turn, `Cc1cc(=O)oc2cc(-n3cc(CSc4nc5ccccc5[nH]4)nn3)ccc12` [Compound 4b, 7-{4-{[(1H-Benzo[d]imidazol-2-yl)thio]methyl}-1H-1,2,3-triazol-1-yl}-4-methyl-2H-chromen-2-one] came in with a melting point of 237 to 244 °C. In the data set on MCF-7 (breast carcinoma), this compound yielded a concentration for half-maximal inhibition (IC50) of 19 ± 3 µM. In addition, in data set [1], 25 µM corresponded to half-maximal inhibition (IC50). In data set [2], this compound returned an IC50 of 74 ± 37 µM. This compound yielded a half-inhibitory concentration (IC50) in the data set on H 460 (lung carcinoma) of 23 ± 10 µM. In addition, the midpoint of inhibition in data set [3], the IC50, lay at 69 ± 8 µM. Besides, half-maximal inhibition in the data set on HCT116 (colon carcinoma) (IC50) required 31 ± 5 µM.

As to `O=c1[nH]cc(F)c(=O)[nH]1` [Compound 5-FU, 5-fluorouracil, reference compound], the IC50 was 14 ± 0.3 µM with MCF-7 (breast carcinoma), 3 ± 0.3 µM in the data set with H 460 (lung carcinoma) and 4 ± 1 µM with HCT116 (colon carcinoma).

`COc1cc([C@@H]2c3cc4c(cc3[C@@H](O[C@@H]3O[C@@H]5CO[C@@H](C)O[C@H]5[C@H](O)[C@H]3O)[C@H]3COC(=O)[C@H]23)OCO4)cc(OC)c1O` [etoposide, reference compound]: the results for the IC50 with MCF-7 (breast carcinoma), with H 460 (lung carcinoma) and with HCT116 (colon carcinoma) were 1 ± 0.7 µM, 0.1 ± 0.04 µM and 5 ± 2 µM, respectively.
